# Laboratory results reported in patent US5811074A, “Method of diagnosing pituitary dependent growth hormone deficiency” (University of South Florida, priority 1996, dated 1998).
# Where a SMILES comes first, the peptide text is derived from it. Where no end group is shown, it is not given here. [ ]: non-standard residue; d: D form.
# How the values were obtained:
# GH secretion [1] = test: Pediatric study: sequential GHRP then GHRH bolus, and co-administration, serum GH by radioimmunoassay; format: in vivo, children; conditions: for GH response to sequentially administered secretagogue: hypopituitary subject (atrophic, developmentally retarded pituitary gland), FIG. 4B
# Experimental: The protocol used in the pediatric study from which data presented below were collected involved the sequential administration of exogenous GHRP and exogenous GHRH as set forth in the present invention (Table 4; FIGS. 1A-1B). Briefly, each subject began testing at approximately 0900 h, one half hour after placement of an intravenous catheter. Two blood samples for basal concentrations of serum GH were drawn, and GHRP (1 μg/kg) was administered as a bolus. Blood samples were then drawn at five minute intervals for 20 minutes during which the GH secretory response occurred, and at longer intervals for about two hours thereafter.
# GHRH (1 μg/kg) was then administered as a bolus, when basal GH concentrations were again established. Blood samples were similarly collected after GHRH administration as they were following GHRP administration. GH concentrations in each serum was then determined by radioimmunoassay.
# The study population was composed of children with normal GH secretory function (serving as controls and normal baseline values) and those with GH secretory dysfunction of various clinical diagnoses. The purpose of evaluating different etiologies of GH secretory dysfunction was to validate the hypothesis that complementary endogenous GH secretagogues must be present for optimal expression of GHRP or GHRH stimulatory potential.
# GH secretion [2] = test: Repeated injections of GHRH preceded by GHRP in the same individual, peak serum GH; format: in vivo; conditions: repeated tests in same individual
# Experimental: The timing between the sequential, independent challenges must be between two and four hours with the preferred embodiment at two hours (120 minutes after GHRX administration). Blood is drawn at regular intervals for up to two hours after the administration of each secretagogue, generally every 5 minutes for the first 20 minutes after administration and 10-15 minute intervals thereafter for the remaining two hours. From these blood samples the peak GH response is measured thereby determining if GH level changes after each administration has occurred.
# Relevant to using GHRH and GHRP as diagnostic agents is the fact that GHRP eliminates the endogenous factors causing variability in the GHRH response. Administration before GHRH creates an episode of GH secretion that "resets" the sensitivity of the GH neurosecretory axis to stimulation by GHRH, so that at the time of GHRH administration, uniform baseline conditions in the subject have been achieved. This then puts the GH neurosecretory axis in a uniform state of readiness for GHRH so that a subsequent relatively stable and constant episode of GHRH-stimulated GH secretion results (Table 3). This GHRH stimulated GH secretory episode can then be compared with the stable episode of GHRP-stimulated GH secretion that preceded it as a basis for the diagnostic test of the present invention.
# GH release [3] = test: GH release after GHRP-6 alone and in combination with GHRH in old versus young rats; format: in vivo, Fischer 344 rats; conditions: GHRP-6 alone, old vs young rats
# Text: Fischer 344 rats (Charles River), both male and female, were used. Young animals are defined as sexually mature between 2 and 7 months of age. Old animals are defined as those over 16 months of age.
# GHRH-efficacy has been reported to be reduced 50 to 75% in old rats (Sonntag et al., 1983); therefore, applicants tested the effect of GHRP-6 alone and in combination with GHRH on GH release in old rats. Peak plasma GH concentrations resulting from GHRP-6 administration in old rats were approximately 60% less than in young rats. […] Since target organs sometimes become hyperresponsive when tonic and/or phasic stimulation decreases, than one would expect exaggerated responses to provocative exogenous stimuli under experimental conditions. GH hypersecretion observed in naive, old rats administered a single bolus of GHRH and GHRP (Walker et al., 1991) provides support for the hypothesis that deficits in stimulated GH secretion in aged rats were due to insufficient signals or inappropriately transduced GH releasing stimuli.
# GH release [4] = test: GHRP-6 activity in young rats with reduced endogenous GHRH (GHRH antiserum or α-methyl-p-tyrosine); format: in vivo
# Experimental: FIG. 2 is a dose response curve for GHRP-6 in rats pretreated with vehicle (triangles), α-methyl-p-tyrosine (circles), or GHRH antiserum (squares). Values represent means±SEM (8 rats per dose and treatment) in plasma collected 15 minutes after administration of GHRP-6.
# Young rats were passively immunized against endogenous GHRH or administered α-methyl-.rho.-tyrosine. If GHRH and the endogenous ligand of GHRP-6 are physiological co-agonists of GH secretion in the young rat, then removal of one or the other should be expressed as attenuated activity of its co-agonist when administered alone. Passive immunization which inactivates GHRH with neutralizing antibodies, or α-methyl-p-tyrosine (L form) which blocks stimulation of hypothalamic GHRH neurons were used to remove or reduce concentrations of endogenous GHRH in the young experimental animals. These treatments were intended to simulate the aged condition in which concentrations of GHRH and GHRH mRNA are low (De Gennaro Collona et al., 1989; Morimoto et al., 1988). Afterwards, GHRP-6 was administered to test and compare its efficacy with that in old rats (Walker et al., 1991).
# Presumably, naturally occurring decrements in endogenous GHRH during aging contributed to the blunted response to GHRP-6 that applicants observed (Walker et al., 1991). […]
# GH release [5] = conditions: rats; Bercu et al., 1992a; cited from earlier work
# GH secretion [6] = test: Provocative challenge with a GH secretagogue administered alone, peak serum GH; format: in vivo
# Experimental: The diagnostic potential of GHRX and GHRH, with GHRP and growth hormone releasing hormone respectively the preferred compounds, for determining the etiology of GH secretory deficiency is profoundly affected by the sequence in which the secretagogues are administered. When GHRH is administered alone, the GH secretory response it elicits is extremely variable and is poorly dose related (Table 1).
# On the other hand, the response to GHRP administered alone is not variable (Table 2). The minimal variability of the GHRP response is presumed to result from its partial action as a somatostatin […].
# The growth hormone levels in the blood of the child or adult can be measured by any well known procedures, e.g., using an immunoradiometric assay as described by Bowers et al. (1990) or any other contemporary, scientifically accepted method.
# pituitary GHRH receptor = target: T1, pituitary GHRH receptor (Rattus norvegicus, UniProt Q02644); test: Effect of GHRH receptor antagonist on GH release in response to GHRP-6 or morphine in young rats; format: in vivo
# T1 construct: tissue Charles River; host or cells: living Fischer 344 rats (pituitary, in vivo)
# T1 sequence (Q02644 23-464): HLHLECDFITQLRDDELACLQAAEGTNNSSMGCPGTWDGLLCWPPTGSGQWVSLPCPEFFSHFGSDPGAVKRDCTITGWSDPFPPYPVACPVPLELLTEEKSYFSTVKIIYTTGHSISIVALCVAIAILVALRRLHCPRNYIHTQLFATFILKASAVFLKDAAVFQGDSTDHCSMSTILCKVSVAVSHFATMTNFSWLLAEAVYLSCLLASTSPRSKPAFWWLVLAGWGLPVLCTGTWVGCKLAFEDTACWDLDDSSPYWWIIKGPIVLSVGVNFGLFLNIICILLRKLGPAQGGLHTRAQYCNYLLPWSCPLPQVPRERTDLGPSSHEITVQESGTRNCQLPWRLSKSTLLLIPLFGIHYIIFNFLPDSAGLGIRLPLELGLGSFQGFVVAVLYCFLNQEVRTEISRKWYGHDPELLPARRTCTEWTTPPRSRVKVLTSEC
# Experimental: FIGS. 3A-3B are dose response curves showing the effect of [N-Ac-Tyr^1,D-Arg^2 ]-GRF 1-29 amide, a GHRHreceptor antagonist, on GH release in response to GHRP-6 (30 μg/kg, closed symbols, FIG. 3A) or morphine (1.5 mg/kg, open symbols, FIG. 3B). The GHRH receptor antagonist was administered in doses of 0 (circle), 5 (square), 50 (triangle), or 150 (diamond) μg/kg. Values represent mean±SEM 8 rats per group.
# The second possible cause of age-related decrements in GH secretion applicants considered was that deterioration in GH secretagogue signal transduction at the pituitary level contributes to the progressive insensitivity to provocative stimuli. In a test of this hypothesis, applicants examined GH secretory responses to GHRP-6 in young rats administered [N-Ac-Tyr^1, D-Arg^2 ]-GRF 1-29, an antagonist to the pituitary GHRH receptor.
# However, 150 μg/kg of [N-Ac-Tyr^1, D-Arg^2 ]-GRF 1-29 amide potentiated GHRP-6 activity, presumably due to partial agonist activity of the GHRH receptor […] at the higher dose (Bercu et al., 1992a).
compound,measurement,setting,value
"C[C@H](NC(=O)[C@@H](Cc1c[nH]c2ccccc12)NC(=O)[C@@H](N)Cc1c[nH]cn1)C(=O)N[C@@H](Cc1c[nH]c2ccccc12)C(=O)N[C@H](Cc1ccccc1)C(=O)N[C@@H](CCCCN)C(N)=O [GHRP-6, His-D-Trp-Ala-Trp-D-Phe-Lys-NH2] (H-H[dW]AW[dF]K-NH2)",GHRP:GHRH ratio,GH secretion [1]; children after radiation of the head (group),< 1
same,GHRP:GHRH ratio,GH secretion [1]; children responding poorly to both secretagogues but better to GHRP (group),> 3
same,GHRP to GHRH ratio,"GH secretion [1]; constitutional delay subject, FIG. 4C",3.1
same,"Peak response, serum GH","GH secretion [1]; constitutional delay subject, FIG. 4C, GHRP-6 1 μg/kg",13.5 ng/mL
same,GH response to sequentially administered secretagogue,GH secretion [1],responded to neither
same,GHRP to GHRH ratio,"GH secretion [1]; irradiated subject, FIG. 4D",0.38
same,"Peak response, serum GH","GH secretion [1]; irradiated subject, FIG. 4D, GHRP-6 1 μg/kg",18.9 ng/mL
same,Peak Serum GH x ± SEM,GH secretion [2]; GHRP 1.0 μg/kg given first,69.31 ± 4.21 ng/mL
same,"Peak plasma GH concentration in old rats, less than in young rats",GH release [3],approximately 60%
same,GHRP-6 activity (plasma GH 15 minutes after GHRP-6),GH release [4]; young female rats pretreated with GHRH antiserum,significantly attenuated
same,GHRP-6 activity (plasma GH 15 minutes after GHRP-6),GH release [4]; young female rats pretreated with α-methyl-p-tyrosine,significantly attenuated
same,Reduction of GHRP-6 activity by passive immunization against endogenous GHRH,GH release [5],approximately 90%
same,Peak Serum GH x ± SEM,"GH secretion [6]; GHRP alone, 0.1 μg/kg",17.51 ± 1.91 ng/mL
same,Peak Serum GH x ± SEM,"GH secretion [6]; GHRP alone, 0.5 μg/kg",41.31 ± 3.97 ng/mL
same,Peak Serum GH x ± SEM,"GH secretion [6]; GHRP alone, 1.0 μg/kg",67.88 ± 6.1 ng/mL
same,Peak Serum GH x ± SEM,"GH secretion [6]; GHRP alone, 1.5 μg/kg",81.60 ± 5.88 ng/mL
"GHRH: naturally occurring GH releasing hormone (growth hormone releasing hormone) (YADAIFTNSYRKVLGQLSARKLLQDIMSRQQGESNQERGARARL; ends and bridges not checked; UniProt P01286 32-75, looked up)","Peak response, serum GH","GH secretion [1]; constitutional delay subject, FIG. 4C, GHRH 1 μg/kg",4.4 ng/mL
same,GH response to sequentially administered secretagogue,GH secretion [1],responded to neither
same,"Peak response, serum GH","GH secretion [1]; irradiated subject, FIG. 4D, GHRH 1 μg/kg",49.4 ng/mL
same,Peak Serum GH x ± SEM,GH secretion [2]; GHRH 1.0 μg/kg preceded by GHRP,32.66 ± 3.33 ng/mL
same,Peak Serum GH x ± SEM,"GH secretion [6]; GHRH alone, 0.1 μg/kg",9.46 ± 3.71 ng/mL
same,Peak Serum GH x ± SEM,"GH secretion [6]; GHRH alone, 0.33 μg/kg",16.45 ± 8.11 ng/mL
same,Peak Serum GH x ± SEM,"GH secretion [6]; GHRH alone, 1.0 μg/kg",13.54 ± 6.51 ng/mL
same,Peak Serum GH x ± SEM,"GH secretion [6]; GHRH alone, 3.3 μg/kg",21.80 ± 6.78 ng/mL
same,Peak Serum GH x ± SEM,"GH secretion [6]; GHRH alone, 10.0 μg/kg",17.41 ± 4.67 ng/mL
"[N-Ac-Tyr^1,D-Arg^2 ]-GRF 1-29 amide [[N-Ac-Tyr^1, D-Arg^2]-GRF 1-29 amide]",GHRP-6 stimulated GH secretion as a function of time,"pituitary GHRH receptor; 50 μg/kg antagonist, P<0.05, FIG. 3A",significantly reduced
same,GHRP-6 stimulated GH secretion as a function of time,"pituitary GHRH receptor; 150 μg/kg antagonist, P<0.01, FIG. 3A",significantly increased
same,Effect on GHRP-6 activity,"pituitary GHRH receptor; 150 μg/kg, GHRP-6 30 μg/kg",potentiated
same,Morphine-stimulated GH secretion,"pituitary GHRH receptor; 50 and 150 μg/kg antagonist, P<0.05, morphine 1.5 mg/kg, FIG. 3B",significantly reduced
same,Effect on GHRP activity,"pituitary GHRH receptor; pre-administration of 5 to 50 μg/kg, GHRP-6 30 μg/kg",attenuated
